Source: PubChem BioAssay (NCI)
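Compound exposure: 48 hours, 5 concentrations, 96-well plates. GI50 = concentration required for 50% inhibition of growth. TGI marks complete inhibition of growth.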

Key:
Assay in all cases: inhibition of tumour cell growth, NCI panel, 48 h
[1] = system: KM12 colon
[2] = system: UO-31 renal
[3] = system: RPMI-8226 leukemia
[4] = system: U251 CNS
[5] = system: MDA-N
[6] = system: T-47D breast
[7] = system: SF-539 CNS
[8] = system: EKVX NSCLC
[9] = system: NCI/ADR-RES ovarian
[10] = system: SNB-75 CNS
[11] = system: NCI-H522 lung

O=c1oc2cc(O)ccc2cc1-c1nc2ccccc2s1
TGI [1]: > 100 µM
TGI [2]: 47.6 µM
TGI [3]: > 100 µM
TGI [4]: 55.7 µM
TGI [5]: 49.9 µM
TGI [6]: 95.7 µM
TGI [7]: 46.6 µM
TGI [8]: 85.9 µM
TGI [9]: 44.7 µM

CC(=O)OCC1OC(n2c3c(cc(C#N)c2=S)CCCCCC3)C(OC(C)=O)C(OC(C)=O)C1OC(C)=O (stereo unspecified)
TGI [1]: > 100 µM
TGI [10]: > 100 µM
TGI [2]: > 100 µM
TGI [3]: > 100 µM
TGI [4]: > 100 µM
TGI [6]: 30.4 µM
TGI [7]: > 100 µM
TGI [9]: > 100 µM
TGI [11]: > 100 µM

COP(=O)(OC)C(O)/C=C(\Cl)c1ccc(Cl)cc1 (stereo unspecified)
TGI [1]: > 100 µM
TGI [10]: > 100 µM
TGI [2]: > 100 µM
TGI [3]: 63.4 µM
TGI [4]: > 100 µM
TGI [6]: > 100 µM
TGI [7]: > 100 µM
TGI [8]: > 100 µM
TGI [9]: 55.7 µM
TGI [11]: > 100 µM

C[N+](C)(C)C1(C(=O)[O-])CC1
TGI [10]: > 100 µM
TGI [3]: > 100 µM
TGI [4]: > 100 µM
TGI [5]: > 100 µM
TGI [6]: > 100 µM
TGI [7]: > 100 µM
TGI [8]: > 100 µM
TGI [9]: > 100 µM
TGI [11]: > 100 µM

c1cc2cc(c1)CN1CCNCCN(CCNCC1)Cc1cccc(c1)CN1CCNCCN(CCNCC1)C2
TGI [1]: > 100 µM
TGI [10]: > 100 µM
TGI [2]: > 100 µM
TGI [3]: > 100 µM
TGI [4]: > 100 µM
TGI [5]: > 100 µM
TGI [6]: > 100 µM
TGI [7]: > 100 µM
TGI [8]: > 100 µM
TGI [9]: > 100 µM

O=C(O)C(Cc1cnc[nH]1)N=Cc1nc(-c2ccccc2)oc1O (stereo unspecified)
TGI [10]: > 100 µM
TGI [2]: > 100 µM
TGI [3]: > 100 µM
TGI [4]: > 100 µM
TGI [7]: > 100 µM
TGI [8]: > 100 µM
TGI [11]: > 100 µM

COc1ccc2c[n+](C)c3c4cc(OC)c(OC)cc4ccc3c2c1
TGI [1]: 3.85 µM
TGI [10]: 15.7 µM
TGI [2]: 84.6 µM
TGI [3]: 16.1 µM
TGI [4]: 15.3 µM
TGI [6]: 18.9 µM
TGI [7]: 24.9 µM
TGI [8]: 54.7 µM
TGI [9]: > 100 µM
TGI [11]: 7.5 µM

CCN(CC)c1nc(N(C)C)c2ccc(OC)cc2n1
TGI [1]: 48.2 µM
TGI [10]: 66.6 µM
TGI [3]: 31 µM
TGI [4]: 71.8 µM
TGI [5]: 22 µM
TGI [6]: 73.6 µM
TGI [7]: 49.6 µM
TGI [8]: 21.8 µM
TGI [9]: 69.1 µM
TGI [11]: 30.3 µM

c1ccc(/N=N\Nc2ccc(-c3nc4ccccc4o3)cc2)nc1
TGI [1]: > 100 µM
TGI [10]: 85.8 µM
TGI [2]: > 100 µM
TGI [4]: > 100 µM
TGI [5]: > 100 µM
TGI [6]: 87.1 µM
TGI [7]: > 100 µM
TGI [8]: 88.2 µM
TGI [9]: > 100 µM
TGI [11]: > 100 µM

c1ccc(SC(Sc2ccccc2)c2ccc3c(c2)OCO3)cc1
TGI [1]: > 100 µM
TGI [2]: > 100 µM
TGI [4]: > 100 µM
TGI [5]: > 100 µM
TGI [6]: > 100 µM
TGI [8]: > 100 µM
TGI [9]: > 100 µM
TGI [11]: > 100 µM

COc1cc(C=Nc2ccc(S(N)(=O)=O)cc2)cc(OC)c1
TGI [1]: > 50 µM
TGI [10]: > 50 µM
TGI [2]: > 50 µM
TGI [3]: > 50 µM
TGI [4]: > 50 µM
TGI [5]: > 50 µM
TGI [6]: > 50 µM
TGI [7]: > 50 µM
TGI [8]: > 50 µM
TGI [9]: > 50 µM

CC1C2(C)OC(=N)C(C#N)(C(c3ccco3)O2)C1(C#N)C#N (stereo unspecified)
TGI [1]: > 100 µM
TGI [10]: > 100 µM
TGI [2]: > 100 µM
TGI [4]: 51.5 µM
TGI [5]: 43 µM
TGI [6]: 45.9 µM
TGI [7]: 35.9 µM
TGI [8]: > 100 µM
TGI [9]: > 100 µM

Cc1ccc(S(=O)C[C@@]2(C(F)F)NC(=O)NC2=O)cc1 (stereo partly specified)
TGI [1]: > 100 µM
TGI [10]: > 100 µM
TGI [2]: > 100 µM
TGI [3]: > 100 µM
TGI [4]: > 100 µM
TGI [6]: > 100 µM
TGI [8]: > 100 µM
TGI [9]: > 100 µM
TGI [11]: > 100 µM

COc1cc(CNC(=O)[C@H](Cc2ccc(O)cn2)NC(C)=O)cc(OC)c1
TGI [1]: > 100 µM
TGI [2]: > 100 µM
TGI [3]: > 100 µM
TGI [4]: > 100 µM
TGI [5]: > 100 µM
TGI [6]: > 100 µM
TGI [7]: > 100 µM
TGI [8]: > 100 µM
TGI [9]: > 100 µM
TGI [11]: > 100 µM

O=C(N1CCC(CN=c2cc3n(-c4ccc(Cl)cc4)c4ccccc4nc-3cc2Nc2ccc(Cl)cc2)CC1)N1CC1
GI50 [1]: 1.4 µM
TGI [1]: 3.21 µM
GI50 [4]: 1.23 µM
TGI [4]: 2.48 µM
GI50 [6]: 2.41 µM
TGI [6]: 5.91 µM
GI50 [7]: 1.63 µM
TGI [7]: 3.13 µM
GI50 [8]: 1.53 µM
TGI [8]: 3.22 µM
GI50 [11]: 1.32 µM
TGI [11]: 2.73 µM

C[C@@H]1OC(=O)C[C@H]2CC(=O)N(CCC3CN(S(=O)(=O)C(F)(F)F)c4ccc(Cc5ccc6c(c5)C(CCN5C[C@H]7[C@@H](CC(=O)O[C@H]7C)CC5=O)CN6S(=O)(=O)C(F)(F)F)cc43)C[C@@H]21 (stereo partly specified)
TGI [1]: > 100 µM
TGI [10]: > 100 µM
TGI [2]: > 100 µM
TGI [3]: > 100 µM
TGI [4]: > 100 µM
TGI [6]: > 100 µM
TGI [7]: 1.84 µM
TGI [8]: > 100 µM
TGI [9]: > 100 µM

NC(CCCNc1cccc(O)c1)C(=O)O (stereo unspecified)
TGI [10]: > 100 µM
TGI [2]: > 100 µM
TGI [3]: > 100 µM
TGI [4]: > 100 µM
TGI [8]: > 100 µM
TGI [11]: > 100 µM

O/N=C1/CCCCCC1NO (stereo unspecified)
TGI [1]: > 100 µM
TGI [2]: > 100 µM
TGI [3]: > 100 µM
TGI [4]: > 100 µM
TGI [5]: > 100 µM
TGI [6]: > 100 µM
TGI [7]: > 100 µM
TGI [8]: > 100 µM
TGI [9]: > 100 µM

O=C(N/N=C/C=C/c1ccc([N+](=O)[O-])o1)c1ccc(Br)s1
TGI [1]: 40.5 µM
TGI [10]: > 100 µM
TGI [2]: 48.9 µM
TGI [3]: 23.4 µM
TGI [4]: > 100 µM
TGI [5]: 56.7 µM
TGI [6]: 65.5 µM
TGI [7]: 74.5 µM
TGI [8]: 95.9 µM
TGI [9]: 57.4 µM

CC(=O)[O-].CC(=O)[O-].O=C(N/N=C/c1cc(Cl)cc(Cl)c1[OH2+])c1ccncc1.[Zn+2]
TGI [1]: > 100 µM
TGI [10]: > 100 µM
TGI [2]: > 100 µM
TGI [3]: > 100 µM
TGI [4]: > 100 µM
TGI [7]: > 100 µM
TGI [8]: > 100 µM
TGI [11]: > 100 µM

CCCC(=O)/C=C/S/C=C/C(=O)CCC
TGI [1]: 37.3 µM
TGI [10]: 83.6 µM
TGI [2]: > 100 µM
TGI [4]: 66.2 µM
TGI [6]: > 100 µM
TGI [7]: 27 µM
TGI [8]: 10.6 µM
TGI [9]: 9.05 µM
TGI [11]: 4.2 µM

O=C1c2ccccc2C(=O)C2C3c4ccccc4C(c4ccccc43)C12 (stereo unspecified)
TGI [1]: > 100 µM
TGI [10]: 42.7 µM
TGI [2]: 59.6 µM
TGI [3]: 25.7 µM
TGI [4]: > 100 µM
TGI [7]: 25.4 µM
TGI [8]: 68.5 µM
TGI [11]: > 100 µM
